Laboratory results taken from patent publication US20260217765A1, “NOVEL ANTIMICROBIAL PEPTIDE DESIGNED FROM DUCK-DERIVED ANTIMICROBIAL PEPTIDE ANDUSE THEREOF” (INDUSTRY-ACADEMIC COOPERATION FOUNDATION, CHOSUN UNIVERSITY, priority 2023, published 2026).
One block for each molecule: values may come before it. Peptide text beside a SMILES is read from it.

Key:
[1] = test system: Acinetobacter baumannii KCTC 2508; format: cell-based; conditions: KCTC 2508, 24 h
Description: (§1) Specifically, among the bacterial strains listed in Table 2, those known to form biofilms well (Acinetobacter baumannii KCTC 2508, Acinetobacter baumannii isolate 10, and isolate 14) were cultured in the appropriate media to the mid-log phase and diluted to a cell concentration of 5×10^4 cells/100 µL, followed by inoculation into microplates (SPL). Subsequently, the peptides prepared in <Example 1> were serially 10-fold diluted with 10 mM sodium phosphate buffer (pH 7.2), and 10 μL of each dilution was added to each well. The plates were then incubated at 37° C. for 24 hours. After completely removing the supernatant, the plates were fixed with 100% methanol for 15 minutes, stained with crystal violet staining solution for 1 hour, washed three times, and then the stain was solubilized with 95% ethanol. Absorbance was measured at 595 nm using a microplate reader to determine the MBIC values for each bacterial strain.

[2] = test system: Acinetobacter baumannii_isolate 10; format: cell-based, Acinetobacter baumannii; conditions: isolate 10, 24 h
Description: as §1

[3] = test system: Acinetobacter baumannii_isolate 14; format: cell-based, Acinetobacter baumannii; conditions: isolate 14, 24 h
Description: as §1

in vitro = format: cell-based; conditions: human, HaCaT keratinocyte cells, Cell Viability
Description: To evaluate the cytotoxicity of the peptides prepared in <Example 1>, toxicity was measured using a human keratinocyte cell line (HaCaT cell line, Dr. N. E. Fusenig, Heidelberg, Germany).
Specifically, HaCaT cells cultured in DMEM medium containing 10% fetal bovine serum (FBS) were seeded at a density of 2×10^5 cells/well into a microtiter plate and incubated for 24 hours. Then, peptides dCATH, dCATH-A1, dCATH-A2, dCATH-A3, dCATH-A4, dCATH-A5, dCATH-A6, and dCATH-A7 were added to each well at concentrations of 3.13, 6.25, 12.5, 25.0, 50.0, and 100.0 μM/well, followed by incubation for 24 hours in a 5% CO2 incubator. After 24 hours, 100 μL of a reaction solution containing 0.5 mg/mL MTT (Thiazolyl Blue Tetrazolium Bromide) dissolved in phosphate-buffered saline (PBS) was added to each well and reacted for 4 hours. After removing the supernatant, 200 μL of DMSO (dimethyl sulfoxide) was added to dissolve the formed MTT crystals, and absorbance at 570 nm was measured to determine cell viability.

[4] = test system: Acinetobacter baumannii membrane; assay: Flow cytometry, propidium iodide, action on bacterial membrane; format: cell-based; conditions: peptide at twice the MIC, 37° C. 10 minutes
Description: To determine whether the peptides prepared in <Example 1> act on bacterial membranes, the parent peptide and the novel peptides dCATH-A1, dCATH-A2, dCATH-A3, dCATH-A4, dCATH-A5, dCATH-A6, and dCATH-A7 were analyzed using flow cytometry.
Specifically, Acinetobacter baumannii was treated with each peptide at twice the minimum inhibitory concentration (MIC), followed by incubation at 37° C. for 10 minutes. The supernatant was then removed by centrifugation at 10,000 rpm, and the bacterial cells were stained with propidium iodide (PI) at a concentration of 10 μg/mL at 4° C. for 30 minutes. Unbound PI was removed by centrifugation, and 1 mL of phosphate-buffered saline (PBS) was added to disperse any cell clumps. The effect of the peptides on the bacterial membrane was then assessed using a Beckman flow cytometer.

plasmid DNA (pRSETB) = assay: Binding to bacterial DNA, agarose gel electrophoresis; conditions: 260 ng plasmid DNA, DNA/peptide ratios 1:1 to 1:4, 37° C. 10 minutes
Description: Accordingly, to further elucidate the mechanism by which these novel peptides exert antimicrobial activity, it was examined whether the novel peptides dCATH-A6 and dCATH-A7 bind to intracellular bacterial DNA using electrophoresis.
Specifically, 260 ng of plasmid DNA (pRSETB) was reacted with each peptide at various ratios (lanes 1 through […] represent DNA only, 1:1, 1:2, 1:3, and 1:4 DNA/peptide ratios, respectively) at 37° C. for 10 minutes. The samples were then subjected to electrophoresis on a 1% agarose gel, stained with ethidium bromide (EtBr), and visualized under UV light.

Compound: CC[C@H](C)[C@H](NC(=O)[C@H](C)NC(=O)[C@H](CC(C)C)NC(=O)[C@@H]1CCCN1C(=O)[C@@H](NC(=O)[C@H](CC(C)C)NC(=O)[C@H](CCC(N)=O)NC(=O)[C@H](Cc1c[nH]c2ccccc12)NC(=O)[C@H](C)NC(=O)[C@H](CCCNC(=N)N)NC(=O)[C@@H](N)CCCCN)C(C)C)C(=O)N[C@@H](CCCCN)C(=O)N[C@H](C(=O)N[C@@H](Cc1ccc(O)cc1)C(=O)N[C@@H](CCCNC(=N)N)C(=O)N[C@@H](C)C(=O)N[C@@H](Cc1c[nH]c2ccccc12)C(=O)N[C@@H](CCCCN)C(=O)N[C@@H](CCCNC(=N)N)C(=O)N[C@@H](CCCNC(=N)N)C(N)=O)[C@@H](C)CC [dCATH-A1] (H-KRAWQLVPLAIKIYRAWKRR-NH2; N-terminus assumed)
- MBIC [1]: 4 µM
- MBIC [2]: 4 µM
- MBIC [3]: 2 µM
- viability at 24 h, 3.13 µM (in vitro): 100%
- viability at 24 h, 6.25 µM (in vitro): 100%
- viability at 24 h, 12.5 µM (in vitro): 97.9%
- viability at 24 h, 25 µM (in vitro): 30%
- viability at 24 h, 50 µM (in vitro): 0.81%
- viability at 24 h, 100 µM (in vitro): 1.79%

Compound: CC[C@H](C)[C@H](NC(=O)[C@H](C)NC(=O)[C@H](CC(C)C)NC(=O)[C@@H]1CCCN1C(=O)[C@@H](NC(=O)[C@H](CC(C)C)NC(=O)[C@H](CCC(N)=O)NC(=O)[C@H](C)NC(=O)[C@H](C)NC(=O)[C@H](CCCNC(=N)N)NC(=O)[C@@H](N)CCCCN)C(C)C)C(=O)N[C@@H](CCCCN)C(=O)N[C@H](C(=O)N[C@@H](Cc1ccc(O)cc1)C(=O)N[C@@H](CCCNC(=N)N)C(=O)N[C@@H](C)C(=O)N[C@@H](Cc1c[nH]c2ccccc12)C(=O)N[C@@H](CCCCN)C(=O)N[C@@H](CCCNC(=N)N)C(=O)N[C@@H](CCCNC(=N)N)C(N)=O)[C@@H](C)CC [dCATH-A3] (H-KRAAQLVPLAIKIYRAWKRR-NH2; N-terminus assumed)
- MBIC [1]: 2 µM
- MBIC [2]: 2 µM
- MBIC [3]: 1 µM
- viability at 24 h, 3.13 µM (in vitro): 92%
- viability at 24 h, 6.25 µM (in vitro): 91.9%
- viability at 24 h, 12.5 µM (in vitro): 97.9%
- viability at 24 h, 25 µM (in vitro): 56.6%
- viability at 24 h, 50 µM (in vitro): 5.47%
- viability at 24 h, 100 µM (in vitro): 1.59%

Compound: CC[C@H](C)[C@H](NC(=O)[C@H](C)NC(=O)[C@H](CCCCN)NC(=O)[C@H](CCCCN)NC(=O)[C@@H](NC(=O)[C@H](CC(C)C)NC(=O)[C@H](CCC(N)=O)NC(=O)[C@H](C)NC(=O)[C@H](C)NC(=O)[C@H](CCCNC(=N)N)NC(=O)[C@@H](N)CCCCN)C(C)C)C(=O)N[C@@H](CCCCN)C(=O)N[C@H](C(=O)N[C@@H](Cc1ccc(O)cc1)C(=O)N[C@@H](CCCNC(=N)N)C(=O)N[C@@H](C)C(=O)N[C@@H](Cc1c[nH]c2ccccc12)C(=O)N[C@@H](CCCCN)C(=O)N[C@@H](CCCNC(=N)N)C(=O)N[C@@H](CCCNC(=N)N)C(N)=O)[C@@H](C)CC [dCATH-A5] (H-KRAAQLVKKAIKIYRAWKRR-NH2; N-terminus assumed)
- MBIC [1]: 2 µM
- MBIC [2]: 2 µM
- MBIC [3]: 1 µM
- viability at 24 h, 3.13 µM (in vitro): 100%
- viability at 24 h, 6.25 µM (in vitro): 92.3%
- viability at 24 h, 12.5 µM (in vitro): 95.1%
- viability at 24 h, 25 µM (in vitro): 58%
- viability at 24 h, 50 µM (in vitro): 8.27%
- viability at 24 h, 100 µM (in vitro): 3.71%

Compound: CC[C@H](C)[C@H](NC(=O)[C@H](C)NC(=O)[C@H](CC(C)C)NC(=O)[C@@H]1CCCN1C(=O)[C@@H](NC(=O)[C@H](CC(C)C)NC(=O)[C@H](CCC(N)=O)NC(=O)[C@H](C)NC(=O)[C@H](Cc1ccccc1)NC(=O)[C@H](CCCNC(=N)N)NC(=O)[C@@H](N)CCCCN)C(C)C)C(=O)N[C@@H](CCCCN)C(=O)N[C@H](C(=O)N[C@@H](Cc1ccc(O)cc1)C(=O)N[C@@H](CCCNC(=N)N)C(=O)N[C@@H](C)C(=O)N[C@@H](Cc1c[nH]c2ccccc12)C(=O)N[C@@H](CCCCN)C(=O)N[C@@H](CCCNC(=N)N)C(=O)N[C@@H](CCCNC(=N)N)C(N)=O)[C@@H](C)CC [dCATH-A2] (H-KRFAQLVPLAIKIYRAWKRR-NH2; N-terminus assumed)
- MBIC [1]: 4 µM
- MBIC [2]: 2 µM
- MBIC [3]: 2 µM
- viability at 24 h, 3.13 µM (in vitro): 100%
- viability at 24 h, 6.25 µM (in vitro): 100%
- viability at 24 h, 12.5 µM (in vitro): 89%
- viability at 24 h, 25 µM (in vitro): 30.7%
- viability at 24 h, 50 µM (in vitro): 2.99%
- viability at 24 h, 100 µM (in vitro): 2.16%

Compound: CC[C@H](C)[C@H](NC(=O)[C@H](C)NC(=O)[C@H](CC(C)C)NC(=O)[C@H](CCCCN)NC(=O)[C@@H](NC(=O)[C@H](CC(C)C)NC(=O)[C@H](CCC(N)=O)NC(=O)[C@H](C)NC(=O)[C@H](C)NC(=O)[C@H](CCCNC(=N)N)NC(=O)[C@@H](N)CCCCN)C(C)C)C(=O)N[C@@H](CCCCN)C(=O)N[C@H](C(=O)N[C@@H](Cc1ccc(O)cc1)C(=O)N[C@@H](CCCNC(=N)N)C(=O)N[C@@H](C)C(=O)N[C@@H](Cc1c[nH]c2ccccc12)C(=O)N[C@@H](CCCCN)C(=O)N[C@@H](CCCNC(=N)N)C(=O)N[C@@H](CCCNC(=N)N)C(N)=O)[C@@H](C)CC [dCATH-A4] (H-KRAAQLVKLAIKIYRAWKRR-NH2; N-terminus assumed)
- MBIC [1]: 4 µM
- MBIC [2]: 4 µM
- MBIC [3]: 4 µM
- viability at 24 h, 3.13 µM (in vitro): 90.9%
- viability at 24 h, 6.25 µM (in vitro): 90.2%
- viability at 24 h, 12.5 µM (in vitro): 58%
- viability at 24 h, 25 µM (in vitro): 5.59%
- viability at 24 h, 50 µM (in vitro): 2.49%
- viability at 24 h, 100 µM (in vitro): 1.36%

- binding to DNA (electrophoresis) (plasmid DNA (pRSETB)): no detectable binding to DNA
Compound: CC[C@H](C)[C@H](NC(=O)[C@H](C)NC(=O)[C@H](CC(C)C)NC(=O)[C@@H]1CCCN1C(=O)[C@@H](NC(=O)[C@H](CC(C)C)NC(=O)[C@H](CCC(N)=O)NC(=O)[C@H](Cc1c[nH]c2ccccc12)NC(=O)[C@H](Cc1ccccc1)NC(=O)[C@H](CCCNC(=N)N)NC(=O)[C@@H](N)CCCCN)C(C)C)C(=O)N[C@@H](CCCCN)C(=O)N[C@H](C(=O)N[C@@H](Cc1ccc(O)cc1)C(=O)N[C@@H](CCCNC(=N)N)C(=O)N[C@@H](C)C(=O)N[C@@H](Cc1c[nH]c2ccccc12)C(=O)N[C@@H](CCCCN)C(=O)N[C@@H](CCCNC(=N)N)C(=O)N[C@@H](CCCNC(=N)N)C(N)=O)[C@@H](C)CC [dCATH, reference compound] (H-KRFWQLVPLAIKIYRAWKRR-NH2; N-terminus assumed)
- MBIC [1]: 4 µM
- MBIC [2]: 4 µM
- MBIC [3]: 4 µM
- viability at 24 h, 3.13 µM (in vitro): 100%
- viability at 24 h, 6.25 µM (in vitro): 100%
- viability at 24 h, 12.5 µM (in vitro): 75.3%
- viability at 24 h, 25 µM (in vitro): 11.6%
- viability at 24 h, 50 µM (in vitro): 2.51%
- membrane damage in Acinetobacter baumannii (shift in PI fluorescence signal) [4]: induced membrane damage
